Measurements as given in publication PMC2231820 (The Journal of General Physiology, 2000).
Changes are numbered by the printed parent chain. Read-outs that look alike come from different tables or passages of the source. Each block holds one compound with its values, some of them ahead of it.

Columns and labels:
Format in all cases: cell-based
[1] = molecular target: T1, bovine rod (Brod) CNG channel, α homomultimer (Bos taurus, UniProt Q00194); details: for Hill coefficient n of cGMP activation: six patches
T1 sequence (Q00194 1-690): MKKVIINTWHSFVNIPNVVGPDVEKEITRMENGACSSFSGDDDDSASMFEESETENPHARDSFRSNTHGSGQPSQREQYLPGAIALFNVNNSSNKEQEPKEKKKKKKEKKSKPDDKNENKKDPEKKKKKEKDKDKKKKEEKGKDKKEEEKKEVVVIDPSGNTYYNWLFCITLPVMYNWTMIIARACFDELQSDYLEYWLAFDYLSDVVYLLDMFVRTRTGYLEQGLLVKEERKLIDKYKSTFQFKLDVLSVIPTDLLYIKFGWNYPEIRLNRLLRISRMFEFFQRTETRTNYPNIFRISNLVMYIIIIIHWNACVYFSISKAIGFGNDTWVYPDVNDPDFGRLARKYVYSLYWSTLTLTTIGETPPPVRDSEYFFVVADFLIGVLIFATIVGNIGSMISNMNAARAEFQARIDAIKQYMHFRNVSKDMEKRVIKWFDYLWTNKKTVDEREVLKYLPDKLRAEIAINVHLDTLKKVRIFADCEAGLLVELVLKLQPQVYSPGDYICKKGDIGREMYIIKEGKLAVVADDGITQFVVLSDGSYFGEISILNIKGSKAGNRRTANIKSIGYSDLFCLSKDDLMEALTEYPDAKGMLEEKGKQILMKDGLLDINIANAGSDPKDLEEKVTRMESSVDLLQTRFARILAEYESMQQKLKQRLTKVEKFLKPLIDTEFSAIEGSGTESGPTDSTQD

[2] = molecular target: T2, Molf G204E CNG channel (Mus musculus, UniProt Q62398, G204E/M2V)
T2 sequence (Q62398 1-664 M2V/G204E): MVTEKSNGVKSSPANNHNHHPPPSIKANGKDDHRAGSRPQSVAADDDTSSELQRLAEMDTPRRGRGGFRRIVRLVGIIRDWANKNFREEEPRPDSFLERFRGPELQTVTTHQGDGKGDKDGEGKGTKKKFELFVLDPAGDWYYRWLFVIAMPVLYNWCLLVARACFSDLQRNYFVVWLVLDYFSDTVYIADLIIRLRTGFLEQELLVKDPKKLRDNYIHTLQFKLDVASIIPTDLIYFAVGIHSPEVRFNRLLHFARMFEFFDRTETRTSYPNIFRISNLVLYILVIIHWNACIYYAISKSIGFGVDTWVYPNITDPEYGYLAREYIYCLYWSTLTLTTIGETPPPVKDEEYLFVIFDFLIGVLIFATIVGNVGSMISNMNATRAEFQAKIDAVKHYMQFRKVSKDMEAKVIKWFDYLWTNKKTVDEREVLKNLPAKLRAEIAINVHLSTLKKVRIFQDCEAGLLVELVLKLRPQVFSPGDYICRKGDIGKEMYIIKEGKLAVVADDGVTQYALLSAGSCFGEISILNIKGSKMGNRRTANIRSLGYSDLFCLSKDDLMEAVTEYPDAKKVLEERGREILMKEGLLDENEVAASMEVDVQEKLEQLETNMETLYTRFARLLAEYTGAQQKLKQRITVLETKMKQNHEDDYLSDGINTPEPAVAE

[3] = molecular target: T3, rat olfactory (Rolf) CNG channel, α homomultimer (Rattus norvegicus, UniProt Q00195); details: for Hill coefficient n of cGMP activation: six patches
T3 sequence (Q00195 1-664): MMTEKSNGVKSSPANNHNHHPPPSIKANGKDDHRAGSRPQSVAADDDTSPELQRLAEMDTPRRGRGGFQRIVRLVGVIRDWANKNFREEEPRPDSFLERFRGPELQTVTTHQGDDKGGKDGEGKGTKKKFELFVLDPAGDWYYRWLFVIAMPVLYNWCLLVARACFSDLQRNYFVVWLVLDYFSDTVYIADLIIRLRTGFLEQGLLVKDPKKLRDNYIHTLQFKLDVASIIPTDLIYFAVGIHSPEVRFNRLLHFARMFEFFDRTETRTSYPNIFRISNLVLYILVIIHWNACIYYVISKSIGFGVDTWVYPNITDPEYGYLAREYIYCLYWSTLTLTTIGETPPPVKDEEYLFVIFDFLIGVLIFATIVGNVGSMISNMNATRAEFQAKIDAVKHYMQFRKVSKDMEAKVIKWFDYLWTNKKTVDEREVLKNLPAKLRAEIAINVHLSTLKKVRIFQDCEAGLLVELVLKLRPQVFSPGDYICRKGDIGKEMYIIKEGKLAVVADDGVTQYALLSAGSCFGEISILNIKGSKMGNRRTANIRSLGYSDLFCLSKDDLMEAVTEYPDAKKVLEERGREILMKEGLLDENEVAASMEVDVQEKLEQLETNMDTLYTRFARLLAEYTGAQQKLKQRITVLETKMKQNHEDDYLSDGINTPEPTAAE

[4] = molecular target: T4, Rolf G204E CNG channel (Rattus norvegicus, UniProt Q00195, G204E); details: for Hill coefficient n of cGMP activation: 2 patches
T4 sequence (Q00195 1-664 G204E): T3 sequence (Q00195 1-664) with G204E

[5] = read-out: Percent inhibition by tetracaine

inhibition at 40 µM [1, 5]: 94.1%
IC50 [2]: 10.8 µM
inhibition at 40 µM [2, 5]: 78.3%
IC50 [3]: 140 µM
inhibition at 40 µM [3, 5]: 10.4%
inhibition at 40 µM [4, 5]: 76.4%
Compound: CCCCNc1ccc(C(=O)OCCN(C)C)cc1 [Tetracaine, tetracaine]

I/Imax of cGMP-activated current ([1]; Brod, 10 μM cGMP, +100 mV): 0.20
Hill coefficient n of cGMP activation ([1]; Brod, +100 mV): 2.0
Hill coefficient n of cGMP activation ([1]; Brod, −100 mV): 2.0
I/Imax of cGMP-activated current ([2]; Molf G204E, 1 μM cGMP, +100 mV): 0.15
Hill coefficient n of cGMP activation ([3]; Rolf, +100 mV): 2.8
Hill coefficient n of cGMP activation ([3]; Rolf, −100 mV): 2.8
Hill coefficient n of cGMP activation ([4]; Rolf G204E, +100 mV): 1.7
Hill coefficient n of cGMP activation ([4]; Rolf G204E, −100 mV): 1.7
Compound: Nc1nc2c(ncn2[C@@H]2O[C@@H]3COP(=O)(O)O[C@H]3[C@H]2O)c(=O)[nH]1 [cGMP]

decrease of maximal current by DAG ([1]; Brod, 1.5 μM DAG, saturating 2 mM cGMP): > 80%
DAG concentration that fully suppresses cGMP-activated currents ([1]; Brod, saturating cGMP): ~3 µM
decrease of maximal current by DAG ([2]; Molf G204E, 1.5 μM DAG, saturating 100 μM cGMP): > 80%
DAG maximal percent inhibition (INmax) ([2]; Molf G204E, saturating 100 μM cGMP): 100%
DAG concentration that fully suppresses cGMP-activated currents ([2]; Molf G204E, saturating cGMP): ~3 µM
decrease of maximal current by DAG ([3]; Rolf, 1.5 μM DAG, saturating 100 μM cGMP): 14%
inhibition of cGMP-activated current by DAG (in words) ([3]; Rolf, 12 μM DAG, saturating cGMP): only partial inhibition
DAG maximal percent inhibition (INmax) ([4]; Rolf G204E, saturating 100 μM cGMP): 100%
DAG concentration that fully suppresses cGMP-activated currents ([4]; Rolf G204E, saturating cGMP): ~3 µM
Compound: diacylglycerol [DAG]
